# From patent US20100226987A1, “TARGETING CONJUGATES COMPRISING ACTIVE AGENTS ENCAPSULATED IN CYCLODEXTRIN-CONTAINING POLYMERS” (CAPSUTECH LTD., priority 2007, published 2010)
# Test system: human nasopharyngeal KB cancer cells, which overexpress the folate receptor (FR)
# Experiment: In vitro binding of RhB-encapsulating conjugates to KB cells (fluorescence counting and fluorescence microscopy)
# Type: cell-based
# Conditions: control = mixture of non-encapsulated RhB, free CD derivative, PEG and FA, FIGS. 1A-1B
# Procedure: Cell culture. KB cells (ATCC CCL-17) were obtained from ATCC and grown on Minimum essential medium (Eagle) with 2 mM L-glutamine; 0.1 mM non-essential amino acids; 0.2 Earle's BSS adjusted to contain 1.5 g/l sodium bicarbonate; and 1.0 mM sodium pyruvate, 90%; heat inactivated fetal bovine serum, 10%. Cells were subcultured according to the ATCC recommended protocol. After 3 cycles of splitting at 85% confluence, 2,000 to 50,000 cells were seeded on transparent 96 well plate. Following 24 hours it was decided that optimal conditions would be seeding 35,000 cells per well for assay to be carried out in the following day. […]
# KB cancer cells were cultured as described in Materials and Methods, and seeded on both Black and transparent 96 well plates for fluorescence counting and fluorescent microscopy. […] The medium was then washed 3 times with PBS 1 X, and fluorescence associated with the cells in both plates was counted using Analyst HT (Ex 525 nm, Dc 560 nm, Em 595 nm). The net fluorescence was calculated by subtracting the averaged background fluorescence form the fluorescence of the conjugate-treated cells. The transparent plate was further analyzed by fluorescence microscopy.
substance,measurement,value
Di-CD-Glu-PEG3350-FA-RhB [Conjugate 55],fluorescence of treated cells higher relative to control,780%
